The record followed here is patent US20220306630A1, “AGONISTS OF ROR GAMMAt” (BRISTOL-MYERS SQUIBB COMPANY, priority 2019, published 2022).

The first assay addresses T1, RORgT (Homo sapiens, UniProt P51449).
T1 construct: Gal4 (fusion partner); expressed in transfected cells; host or cells: engineered Jurkat cells (Jurkat pEx/Gal/hRORγ CLBD/HYG pG5luc/blast)
T1 sequence (P51449 267-516): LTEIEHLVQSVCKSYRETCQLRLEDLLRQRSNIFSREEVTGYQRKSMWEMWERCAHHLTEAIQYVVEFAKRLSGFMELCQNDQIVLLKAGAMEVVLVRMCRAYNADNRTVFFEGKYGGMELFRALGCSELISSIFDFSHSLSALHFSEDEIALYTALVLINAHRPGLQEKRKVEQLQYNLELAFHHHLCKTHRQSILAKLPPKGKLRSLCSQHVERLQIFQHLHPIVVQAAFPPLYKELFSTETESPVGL
The assay is described as follows: RORgT Gal4 Luciferase Reporter Gene Assay. The assay is classed as cell-based. The settings on record: RORg_GAL4 EC50 (nM), engineered Jurkat cells overexpressing RORgT (LBD or full length) with Gal4 Luc reporter; 18 hours at 37° C.; 40 μM to 0.67 nM. The essentials: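 Cells exposed to compound 18 hours at 37° C, then lysed for luciferase luminescence. Inhibition of constitutive activity expressed as percent reduction of signal window relative to a control compound.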
Compound `CC(C)c1cc(F)cc(Oc2c(Cl)ccc(C(=O)N3CCN(S(C)(=O)=O)CC3)c2Cl)c1` [Example 263] gave a concentration giving a half-maximal response (EC50) of 105 nM.

The assay is the same for the next values; noted with them: engineered Jurkat cells overexpressing RORgT (LBD or full length) with Gal4 Luc reporter; 18 hours at 37° C.; 40 μM to 0.67 nM; read-out: RORg_GAL4 EC50.
With `CCNC(=O)Nc1cc(Cl)c(Oc2ccc(OC)c(C(C)C)c2)c(Cl)c1` [Example 306], the half-maximal effective concentration (EC50) amounted to 1890 nM. Same read-out and setting: then `COc1ccc(Oc2c(Cl)ccc(CNS(=O)(=O)C3CCN(S(C)(=O)=O)CC3)c2Cl)cc1C(C)C` [Example 57], with 16 nM; and `CC(C)c1cc(Oc2c(Cl)ccc(C(=O)NCc3ccc(S(N)(=O)=O)cc3)c2Cl)ccc1F` [Example 114], with 5.2 nM; and `CNC(=O)c1ccc(CNC(=O)c2ccc(Cl)c(Oc3ccc(OC)c(C(C)C)c3)c2Cl)cc1` [Example 102], with 455 nM. As to `COc1ccc(Oc2c(Cl)ccc(C(=O)NCCc3ccccc3Cl)c2Cl)cc1C(C)C` [Example 199], the half-maximal effective concentration (EC50) worked out at 3890 nM. On to `COc1ccc(Oc2c(Cl)ccc(C(=O)NCc3ccccn3)c2Cl)cc1C(C)C` [Example 194], for which the concentration for a half-maximal effect (EC50) is 6460 nM. In the case of `CC(C)c1cc(F)cc(Oc2c(Cl)ccc(C(=O)NCc3cnn(S(C)(=O)=O)c3)c2Cl)c1` [Example 128], the EC50 worked out at 139 nM. On to `COc1ccc(Oc2c(Cl)cc(NC(=O)CCN3CCCC3=O)cc2Cl)cc1C(C)C` [Example 291], for which the half-maximal effective concentration (EC50) was determined as 134 nM. Turning to `COc1ccc(Oc2c(Cl)cc3[nH]c(Cc4ccccc4)nc3c2Cl)cc1C(C)C` [Example 308], the half-maximal effective concentration (EC50) turned out to be 1280 nM. Still for that read-out and setting: in the case of `COc1ccc(Oc2c(Cl)ccc(C(=O)NCc3ccc(S(=O)(=O)N(C)C)nc3)c2Cl)cc1C(C)C` [Example 99] it was 153 nM; in that of `COc1ccc(Oc2c(Cl)cc(N3CC(CNS(C)(=O)=O)OC3=O)cc2Cl)cc1C(C)C` (stereo not shown) [Example 254], 655 nM; in that of `COc1ccc(Oc2c(Cl)ccc(C(=O)N3CCc4cc(N)ccc4C3)c2Cl)cc1C(C)C` [Example 108], 766 nM. Take `COc1ccc(Oc2c(Cl)cc(NC(=O)CC3CCN(S(C)(=O)=O)CC3)cc2Cl)cc1C(C)(C)C` [Example 255]: the concentration giving a half-maximal response (EC50) worked out at 19 nM. On the same count and under the same terms, then `CC(C)c1cc(Oc2c(Cl)cc(NC(=O)Cc3cccnc3)cc2Cl)ccc1OC(F)(F)F` [Example 259], with 356 nM. Still for that read-out and setting: then `COc1ccc(Oc2c(Cl)ccc(C(=O)NCCc3ncn[nH]3)c2Cl)cc1C(C)C` [Example 218], with 328 nM; and `COc1ccc(Oc2c(Cl)cc(NC(=O)CC3CCCN(S(=O)(=O)C4CC4)C3)cc2Cl)cc1C(C)C` (stereo not shown) [Example 317], with 95 nM. Turning to `COc1ccc(Oc2c(Cl)ccc(C(=O)N3CCN(C(C)=O)CC3)c2Cl)cc1C(C)C` [Example 203], the EC50 stood at 129 nM. Take `COc1ccc(Oc2c(Cl)cc(NC(=O)Cc3ccnc(N)c3)cc2Cl)cc1C(C)C` [Example 238]: the EC50 stood at 752 nM.

On to `COc1ccc(Oc2c(Cl)cc(NC(=O)OCC(C)(C)C#N)cc2Cl)cc1C(C)C` [Example 233], for which the EC50 is 319 nM.

Take `COc1ccc(Oc2c(Cl)cc(NC(=O)CCn3ccc(S(C)(=O)=O)n3)cc2Cl)cc1C(C)C` [Example 252]: the EC50 was 264 nM. Consider `COc1ccc(Oc2c(Cl)cc(NC(=O)c3ccc(S(C)(=O)=O)cc3)cc2Cl)cc1C(C)C` [Example 293], for which the EC50 amounted to 3270 nM. On to `COc1ccc(Oc2c(Cl)ccc(CNC(=O)CC3CCN(S(C)(=O)=O)CC3)c2Cl)cc1C(C)C` [Example 222], for which the EC50 stood at 225 nM. Turning to `CC1(c2cc(F)cc(Oc3c(Cl)ccc(C(=O)NCc4ccc(S(C)(=O)=O)cc4)c3Cl)c2)CC1` [Example 276], the 50% effective concentration (EC50) came to 5.1 nM. For `COc1ccc(Oc2c(Cl)cc(NC(=O)CC3CCN(S(=O)(=O)C4CC4)CC3)cc2Cl)cc1C(C)C` [Example 320], the 50% effective concentration (EC50) was found to be 177 nM. With `COc1ccc(Oc2c(Cl)cc(NC(=O)CCCS(N)(=O)=O)cc2Cl)cc1C(C)C` [Example 282], the concentration giving a half-maximal response (EC50) stood at 264 nM. Take `CC(c1cc(F)cc(Oc2c(Cl)cc(NC(=O)Cc3ccc(S(C)(=O)=O)cc3)cc2Cl)c1)C(F)(F)F` (stereo not shown) [Example 353]: the concentration giving a half-maximal response (EC50) worked out at 14 nM.

On to `COc1ccc(Oc2c(Cl)ccc(C(=O)NCc3cccc(S(C)(=O)=O)c3)c2Cl)cc1C(C)C` [Example 82], for which the concentration for a half-maximal effect (EC50) amounted to 7600 nM.
